Measurements published in ChEMBL document CHEMBL4765292, “Flexible diaminodihydrotriazine inhibitors of Plasmodium falciparum dihydrofolate reductase: Binding strengths, modes of binding and their antimalarial activities” (Eur J Med Chem, 2020).

Assays:
[1] = test system: DHFR (human against Plasmodium falciparum DHFR double mutant); assay: Selectivity index, ratio of Ki for human DHFR expressed in Escherichia coli BL21 to Ki for Plasmodium falciparum DHFR double mutant expressed in Escherichia coli BL21; format: toxicity; conditions: read-out: Ratio Ki
[2] = Inhibition of Plasmodium falciparum DHFR […] mutant expressed in Escherichia coli BL21 using DHF as substrate by spectrophotometric analysis
[3] = test system: DHFR (human against Plasmodium falciparum DHFR); assay: Selectivity index, ratio of Ki for human DHFR expressed in Escherichia coli BL21 to Ki for Plasmodium falciparum DHFR expressed in Escherichia coli BL21; format: toxicity; conditions: read-out: Ratio Ki
Vero = assay: Cytotoxicity against African green monkey Vero cells assessed as reduction in cell viability incubated for 72 hrs by SRB assay; format: cell-based; conditions: Chlorocebus sabaeus
[4] = test system: DHFR (human against Plasmodium falciparum DHFR N51I/C59R/S108N/I164L mutant); assay: Selectivity index, ratio of Ki for human DHFR expressed in Escherichia coli BL21 to Ki for Plasmodium falciparum DHFR N51I/C59R/S108N/I164L mutant expressed in Escherichia coli BL21; format: toxicity; conditions: read-out: Ratio Ki
[5] = Inhibition of Plasmodium falciparum DHFR expressed in Escherichia coli BL21 using DHF as substrate by spectrophotometric analysis
Plasmodium falciparum [6] = assay: Antimalarial activity against Plasmodium falciparum K1CB1 harboring DHFR […] mutant infected in human erythrocytes assessed as reduction in [3H]-hypoxanthine incorporation pretreated for 20 hrs followed by [3H]-hypoxanthine addition measured after 20 hrs by radioactivity method; format: functional, organism-based; conditions: K1CB1, Erythrocyte
[7] = Inhibition of Plasmodium falciparum DHFR N51I/C59R/S108N mutant expressed in Escherichia coli BL21 using DHF as substrate by spectrophotometric analysis
[8] = Inhibition of Plasmodium falciparum DHFR N51I/C59R/S108N/I164L mutant expressed in Escherichia coli BL21 using DHF as substrate by spectrophotometric analysis
Plasmodium falciparum [9] = assay: Antimalarial activity against Plasmodium falciparum TM4/8.2 infected in human erythrocytes assessed as reduction in [3H]-hypoxanthine incorporation pretreated for 20 hrs followed by [3H]-hypoxanthine addition measured after 20 hrs by radioactivity method; format: functional, organism-based
[10] = Therapeutic index, ratio of IC50 for African green monkey Vero cells to IC50 for Plasmodium falciparum K1CB1 harboring DHFR […] mutant; format: toxicity; conditions: read-out: Ratio IC50
Plasmodium falciparum [11] = assay: Antimalarial activity against Plasmodium falciparum V1/S harboring DHFR N51I/C59R/S108N/I164L mutant infected in human erythrocytes assessed as reduction in [3H]-hypoxanthine incorporation pretreated for 20 hrs followed by [3H]-hypoxanthine addition measured after 20 hrs by radioactivity method; format: functional, organism-based; conditions: Erythrocyte
[12] = Therapeutic index, ratio of IC50 for African green monkey Vero cells to IC50 for Plasmodium falciparum V1/S harboring DHFR N51I/C59R/S108N/I164L mutant; format: toxicity; conditions: read-out: Ratio IC50
Plasmodium falciparum [13] = assay: Antimalarial activity against Plasmodium falciparum CsI-2 harboring DHFR C59R/S108N/I164L mutant infected in human erythrocytes assessed as reduction in [3H]-hypoxanthine incorporation pretreated for 20 hrs followed by [3H]-hypoxanthine addition measured after 20 hrs by radioactivity method; format: functional, organism-based; conditions: CsI-2, Erythrocyte
[14] = Therapeutic index, ratio of IC50 for African green monkey Vero cells to IC50 for Plasmodium falciparum TM4/8.2; format: toxicity; conditions: against Plasmodium falciparum TM4/8.2, read-out: Ratio IC50
[15] = Inhibition of Plasmodium falciparum DHFR C59R/S108N/I164L mutant expressed in Escherichia coli BL21 using DHF as substrate by spectrophotometric analysis
Plasmodium falciparum [16] = assay: Antimalarial activity against Plasmodium falciparum W2 harboring DHFR N51I/C59R/S108N mutant infected in human erythrocytes assessed as reduction in [3H]-hypoxanthine incorporation pretreated for 20 hrs followed by [3H]-hypoxanthine addition measured after 20 hrs by radioactivity method; format: functional, organism-based; conditions: W2, Erythrocyte
[17] = Inhibition of Plasmodium falciparum DHFR A16V/S108T mutant expressed in Escherichia coli BL21 using DHF as substrate by spectrophotometric analysis
Plasmodium falciparum [18] = assay: Antimalarial activity against Plasmodium falciparum T9/94 RC17 harboring DHFR A16V/S108T mutant infected in human erythrocytes assessed as reduction in [3H]-hypoxanthine incorporation pretreated for 20 hrs followed by [3H]-hypoxanthine addition measured after 20 hrs by radioactivity method; format: functional, organism-based; conditions: T9/94 RC17, Erythrocyte

CC1N=C(N)N=C(N)N1OCCCOc1ccc(Cl)cc1 (stereo unspecified)
selectivity ratio [1]: 166 | Ki [2]: 0.7 nM | selectivity ratio [3]: 290 | IC50 (Vero): > 50000 nM | selectivity ratio [4]: 64 | Ki [5]: 0.4 nM | IC50 (Plasmodium falciparum [6]): 29 nM | Ki [7]: 0.9 nM | Ki [8]: 1.8 nM | IC50 (Plasmodium falciparum [9]): 30 nM | selectivity ratio [10]: > 1720 | IC50 (Plasmodium falciparum [11]): 820 nM | selectivity ratio [12]: > 61 | IC50 (Plasmodium falciparum [13]): 380 nM | selectivity ratio [14]: > 1670 | Ki [15]: 1.4 nM | IC50 (Plasmodium falciparum [16]): 120 nM | Ki [17]: 1.9 nM

CC1(C)N=C(N)N=C(N)N1OCCCSc1cccc(Cl)c1
selectivity ratio [1]: 30 | Ki [2]: 0.8 nM | selectivity ratio [3]: 34 | IC50 (Vero): 3900 nM | selectivity ratio [4]: 24 | Ki [5]: 0.7 nM | IC50 (Plasmodium falciparum [6]): 5.5 nM | IC50 (Plasmodium falciparum [18]): 2.4 nM | Ki [8]: 1 nM | IC50 (Plasmodium falciparum [9]): 1.3 nM | selectivity ratio [10]: 709 | IC50 (Plasmodium falciparum [11]): 77 nM | selectivity ratio [12]: 51 | IC50 (Plasmodium falciparum [13]): 42 nM | selectivity ratio [14]: 3000 | Ki [15]: 0.9 nM | IC50 (Plasmodium falciparum [16]): 8.1 nM | Ki [17]: 3.4 nM

CN(CCCON1C(N)=NC(N)=NC1(C)C)c1ccc(Cl)c(Cl)c1
selectivity ratio [1]: 39 | Ki [2]: 1 nM | selectivity ratio [3]: 30 | IC50 (Vero): 33300 nM | selectivity ratio [4]: 10 | Ki [5]: 1.3 nM | IC50 (Plasmodium falciparum [6]): 32 nM | Ki [7]: 1.5 nM | Ki [8]: 3.9 nM | IC50 (Plasmodium falciparum [9]): 0.52 nM | selectivity ratio [10]: 1040 | IC50 (Plasmodium falciparum [11]): 290 nM | selectivity ratio [12]: 115 | IC50 (Plasmodium falciparum [13]): 140 nM | selectivity ratio [14]: 64000 | Ki [15]: 2.3 nM | IC50 (Plasmodium falciparum [16]): 28 nM | Ki [17]: 4 nM

CCN(CC)CCCON1C(N)=NC(N)=NC1(C)C
selectivity ratio [1]: 135 | Ki [2]: 1.7 nM | selectivity ratio [3]: 230 | IC50 (Vero): > 50000 nM | selectivity ratio [4]: 29 | Ki [5]: 1 nM | IC50 (Plasmodium falciparum [6]): 32 nM | Ki [7]: 2.1 nM | Ki [8]: 7.9 nM | IC50 (Plasmodium falciparum [9]): 24 nM | selectivity ratio [10]: > 1560 | IC50 (Plasmodium falciparum [11]): 800 nM | selectivity ratio [12]: > 63 | IC50 (Plasmodium falciparum [13]): 140 nM | selectivity ratio [14]: > 2080 | Ki [15]: 5.5 nM | IC50 (Plasmodium falciparum [16]): 70 nM | Ki [17]: 9.7 nM

CC1(C)N=C(N)N=C(N)N1OCCCOc1ccc(Cl)cc1
selectivity ratio [1]: 32 | Ki [2]: 0.9 nM | selectivity ratio [3]: 49 | IC50 (Vero): 170 nM | selectivity ratio [4]: 29 | Ki [5]: 0.6 nM | IC50 (Plasmodium falciparum [6]): 1.9 nM | IC50 (Plasmodium falciparum [18]): 0.24 nM | Ki [8]: 1 nM | IC50 (Plasmodium falciparum [9]): 0.28 nM | selectivity ratio [10]: 89 | IC50 (Plasmodium falciparum [11]): 23 nM | selectivity ratio [12]: 7 | IC50 (Plasmodium falciparum [13]): 3.9 nM | selectivity ratio [14]: 607 | Ki [15]: 0.9 nM | IC50 (Plasmodium falciparum [16]): 2.1 nM | Ki [17]: 1.2 nM

CC1(C)N=C(N)N=C(N)N1OCCCOc1ccc(F)cc1Cl
selectivity ratio [1]: 42 | Ki [2]: 0.9 nM | selectivity ratio [3]: 94 | IC50 (Vero): 21400 nM | selectivity ratio [4]: 31 | Ki [5]: 0.4 nM | IC50 (Plasmodium falciparum [6]): 0.26 nM | IC50 (Plasmodium falciparum [18]): 0.28 nM | Ki [8]: 1.2 nM | IC50 (Plasmodium falciparum [9]): 0.034 nM | selectivity ratio [10]: 82300 | IC50 (Plasmodium falciparum [11]): 3 nM | selectivity ratio [12]: 7130 | IC50 (Plasmodium falciparum [13]): 3.1 nM | selectivity ratio [14]: 629000 | Ki [15]: 0.9 nM | IC50 (Plasmodium falciparum [16]): 0.24 nM | Ki [17]: 1.8 nM

CC1N=C(N)N=C(N)N1OCCCOc1cccc(Cl)c1Cl (stereo unspecified)
selectivity ratio [1]: 33 | Ki [2]: 0.6 nM | selectivity ratio [3]: 49 | IC50 (Vero): 5910 nM | selectivity ratio [4]: 16 | Ki [5]: 0.4 nM | IC50 (Plasmodium falciparum [6]): 5.9 nM | Ki [7]: 0.6 nM | Ki [8]: 1.2 nM | IC50 (Plasmodium falciparum [9]): 1.3 nM | selectivity ratio [10]: 1000 | IC50 (Plasmodium falciparum [11]): 210 nM | selectivity ratio [12]: 28 | IC50 (Plasmodium falciparum [13]): 62 nM | selectivity ratio [14]: 4550 | Ki [15]: 1.2 nM | IC50 (Plasmodium falciparum [16]): 150 nM | Ki [17]: 1.8 nM
